Laboratory results from patent US8436049B2, “Uses of pentamidine and related compounds” (State of Oregon Acting By and Through the State Board of …, priority 2008, dated 2013).
Where “and” joins values, the source holds several entries; their conditions need not be identical. Identical values can stand only once.

Experiments:
[1] = target: CUG repeats (fluorescein labeled RNA); test: Fluorescence anisotropy, direct binding to fluorescein labeled CUG repeats; conditions: absence of MBNL, 25° C.
Description: Fluorescent RNAs were ordered from Dharmacon RNA Technologies (Lafayette, Colo.), and deprotected according to the manufacturer's protocol. RNA was snap annealed in 175 mM NaCl, 20 mM Tris pH 7.5, 5 mM MgCl2. All fluorescence anisotropy experiments were performed in this buffer, with the addition of 0.1 mg/ml of heparin when using protein. Experiments were performed at 25° C. in a 7.5 mm wide Spectrosil® far UV quartz cuvette (Starna Cells, Inc, Atascadero, Calif.), using an L-format FluoroMax®-3 fluorimeter (Horiba Jobin Yvon, Inc., Edison, N.J.). Each anisotropy run was normalized by setting the initial value of the anisotropy of the RNA alone to zero, which converts the data into Δ anisotropy. Curves were graphed using KaleidaGraph (Synergy) software. For curve fitting of titrations and determining apparent Kd values, Equation 1 was used (Example 1). The error bars on the binding curve were obtained by averaging individual titration points from three separate experiments and calculating the standard deviation.
To determine if pentamidine binds to the CUG repeats and not to MBNL, fluorescein labeled CUG repeats (FIG. 3A) were used to monitor the binding of pentamidine directly to the CUG repeats in the absence of MBNL.

[2] = tested on: PLEKHH2 minigene in HeLa cells; test: PLEKHH2 minigene splicing in HeLa cells; format: cell-based; conditions: with or without CUG repeats
Description: HeLa cells were grown in monolayers in DMEM with GlutaMAX™ (Gibco, Carlsbad, Calif.) and supplemented with 10% fetal bovine serum. Approximately 2.0 (±0.2)×10^5 cells were plated in 6 well plates and transfected 18-20 hours later at 70-90% confluency. 1 μg of plasmid was transfected into each well of cells, using 5 μL of […] (Invitrogen) according to the manufacturer's protocols. For co-transfection, 1 μg of total plasmid was transfected, at 500 ng of each construct. Test compounds were added 4 hours after transfection, when the media was changed. Cells were harvested 18-22 hours after transfection using TrypLE™ reagent (Gibco).
Immediately following harvesting, RNA was isolated from the cell pellets using an RNeasy® kit (Qiagen, Valencia, Calif.). 500 ng of isolated RNA was DNased with RQI DNase (Promega, Madison, Wis.) according to manufacture's protocol. 100 ng of DNAsed RNA was reverse transcribed with Superscript® II (Invitrogen, Carlsbad, Calif.) and a cTNT-specific reverse primer according to manufacturer's protocols. 30 ng of the reverse transcription reaction was subjected to 22-25 rounds of PCR amplification using cTNT specific primers spiked with a forward primer 5′ end-labeled with [γ-^32P]ATP. […] The gel was subsequently autoradiographed and quantitation of the radioactive bands was performed using ImageQuant® software. […]

[3] = tested on: CUG960 RNA nuclear foci / MBNL-GFP in HeLa cells; test: CUG foci formation and MBNL-GFP sequestration in HeLa cells transfected with MBNL-GFP and CUG960; format: cell-based; conditions: 50 μM
Description: HeLa cells were plated in 6 well plates onto coverslips pre-treated with poly-L-lysine. Cells were transfected as described in Example 3. For transfection, 50 ng of MBNL-eGFP plasmid and 500 ng of CUG960 plasmid were transfected for each experiment. A total of 1 μg of plasmid DNA was transfected, with the additional amount being empty pcDNA3 vector. After transfection, pentamidine was added and the cells were fixed 16 hours later.
Cells were fixed for 15 min at room temperature (RT) with 4% paraformaldehyde and washed 5 times for 2 min in 1×PBS at RT. Cells were stored at 4° C., if not probed immediately. For fluorescence in situ hybridization, cells were permeabilized with 2% pre-chilled acetone in 1×PBS, at RT for 5 min. Cells were pre-washed with 30% formamide, 2×SSC for 10 min at RT. Cells were then probed for 2 hours at 37° C., with 1 ng/μl Cy3 CAG10 probe (Integrated DNA Technologies, Coralville, Iowa) in 30% formamide, 2×SSC, 0.02% BSA, 66 μg/ml yeast tRNA, 2 mM vanadyl complex. The cells were washed for 30 min in 30% formamide, 2×SSC at 42° C., then with 1×SSC for 30 min at RT. […] MBNL-eGFP was visualized using GFP fluorescence, exciting from 450-490 nm and visualizing at 520 nm. […]
Cells were scored by eye with the following criteria. […] 201 cells were scored for the MBNL-GFP and CUG960 double transfection. 242 cells treated with pentamidine (50 μM) were scored. […]

N=C(N)c1ccc(OCCCCCOc2ccc(C(=N)N)cc2)cc1 [pentamidine]
Kd [1]: ~19 µM and 19 µM
Effect on PLEKHH2 minigene splicing [2]: Splicing was unchanged
Characteristics of CUG RNA foci [3]: the foci became increasingly more diffuse
MBNL sequestration to foci [3]: partially relieved in many cells
